Laboratory results published in ChEMBL document CHEMBL1681645, “Pyrrolo[1,2-f]triazines as JAK2 inhibitors: achieving potency and selectivity for JAK2 over JAK3” (Bioorg Med Chem Lett, 2011).

Legend:
[1] = target: Tyrosine-protein kinase JAK2 (Homo sapiens, UniProt O60674); experiment: Inhibition of JAK2 after 60 mins
[2] = Antiproliferative activity against human SET2 cells assessed as inhibition of [3H]thymidine incorporation after 72 hrs; assay type: functional, cell-based; conditions: SET-2
[3] = target: T1, Tyrosine-protein kinase JAK3 (Homo sapiens, UniProt P52333); experiment: Inhibition of JAK3 after 60 mins
T1 sequence (P52333 whole entry): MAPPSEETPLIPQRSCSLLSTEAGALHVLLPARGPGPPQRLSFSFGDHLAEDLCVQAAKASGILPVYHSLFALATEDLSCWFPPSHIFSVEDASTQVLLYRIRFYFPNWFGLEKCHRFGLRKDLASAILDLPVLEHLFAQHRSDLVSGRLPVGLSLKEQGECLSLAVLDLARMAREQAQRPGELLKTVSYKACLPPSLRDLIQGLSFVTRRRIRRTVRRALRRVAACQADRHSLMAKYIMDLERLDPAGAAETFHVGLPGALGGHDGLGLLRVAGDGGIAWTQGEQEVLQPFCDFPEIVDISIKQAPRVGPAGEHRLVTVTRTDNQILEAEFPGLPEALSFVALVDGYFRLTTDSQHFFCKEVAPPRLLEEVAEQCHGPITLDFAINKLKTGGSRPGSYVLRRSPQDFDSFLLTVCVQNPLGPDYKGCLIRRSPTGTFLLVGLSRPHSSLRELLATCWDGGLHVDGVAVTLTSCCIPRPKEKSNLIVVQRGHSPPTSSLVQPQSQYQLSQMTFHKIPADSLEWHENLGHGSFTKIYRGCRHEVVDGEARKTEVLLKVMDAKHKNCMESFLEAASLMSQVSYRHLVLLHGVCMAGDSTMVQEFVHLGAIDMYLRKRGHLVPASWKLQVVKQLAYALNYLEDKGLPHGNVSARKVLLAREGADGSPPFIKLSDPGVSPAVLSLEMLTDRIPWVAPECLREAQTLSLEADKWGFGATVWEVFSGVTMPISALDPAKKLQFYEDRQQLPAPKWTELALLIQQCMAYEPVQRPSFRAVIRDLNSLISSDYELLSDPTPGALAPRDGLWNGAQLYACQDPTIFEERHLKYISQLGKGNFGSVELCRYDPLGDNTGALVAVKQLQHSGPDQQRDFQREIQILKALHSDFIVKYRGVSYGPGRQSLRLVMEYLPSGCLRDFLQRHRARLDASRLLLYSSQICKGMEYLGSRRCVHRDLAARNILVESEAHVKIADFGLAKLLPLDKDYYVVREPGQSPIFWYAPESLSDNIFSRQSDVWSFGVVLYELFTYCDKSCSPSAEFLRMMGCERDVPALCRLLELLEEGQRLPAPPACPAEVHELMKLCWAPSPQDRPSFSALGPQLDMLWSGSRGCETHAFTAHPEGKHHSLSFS

[4] = Selectivity ratio of IC50 for JAK3 over IC50 for JAK2
[5] = Selectivity ratio of IC50 for JAK1 over IC50 for JAK2

Sequence of Tyrosine-protein kinase JAK2 (O60674 whole entry): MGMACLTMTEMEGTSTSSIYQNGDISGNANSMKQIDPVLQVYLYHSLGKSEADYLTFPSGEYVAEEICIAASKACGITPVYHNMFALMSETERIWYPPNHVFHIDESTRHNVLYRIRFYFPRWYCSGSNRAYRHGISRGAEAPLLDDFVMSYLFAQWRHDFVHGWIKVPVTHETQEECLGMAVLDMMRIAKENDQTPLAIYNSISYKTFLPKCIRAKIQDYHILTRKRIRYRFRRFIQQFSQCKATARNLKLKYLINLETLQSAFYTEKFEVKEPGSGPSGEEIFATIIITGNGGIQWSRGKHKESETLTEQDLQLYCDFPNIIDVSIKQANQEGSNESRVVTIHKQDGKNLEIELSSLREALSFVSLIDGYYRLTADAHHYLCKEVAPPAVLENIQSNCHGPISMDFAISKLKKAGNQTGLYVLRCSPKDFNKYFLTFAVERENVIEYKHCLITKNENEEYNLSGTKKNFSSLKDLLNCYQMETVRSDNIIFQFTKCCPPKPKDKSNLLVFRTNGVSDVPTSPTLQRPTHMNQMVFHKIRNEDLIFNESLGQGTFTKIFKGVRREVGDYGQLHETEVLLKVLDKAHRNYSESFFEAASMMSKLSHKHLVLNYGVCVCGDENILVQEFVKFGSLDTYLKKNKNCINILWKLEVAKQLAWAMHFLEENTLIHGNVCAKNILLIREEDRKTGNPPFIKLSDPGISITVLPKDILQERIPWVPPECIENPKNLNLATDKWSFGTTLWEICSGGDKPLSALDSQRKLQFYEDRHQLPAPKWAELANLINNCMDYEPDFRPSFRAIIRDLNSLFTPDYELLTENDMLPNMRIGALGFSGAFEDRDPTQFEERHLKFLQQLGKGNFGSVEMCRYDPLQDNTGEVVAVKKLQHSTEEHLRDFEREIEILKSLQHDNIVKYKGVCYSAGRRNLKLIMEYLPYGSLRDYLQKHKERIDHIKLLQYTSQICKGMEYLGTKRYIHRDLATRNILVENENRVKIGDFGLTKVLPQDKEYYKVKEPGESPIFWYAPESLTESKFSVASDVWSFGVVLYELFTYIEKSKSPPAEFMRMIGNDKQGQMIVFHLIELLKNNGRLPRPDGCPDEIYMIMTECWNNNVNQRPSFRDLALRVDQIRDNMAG

Row | Structure (SMILES) | IC50 [1] | IC50 [3] | Ratio IC50 [4] | Ratio IC50 [5] | IC50 [2]
1 | Cc1cc(Nc2nc(N3CCN(C(=O)CCc4ccccc4)CC3)nn3cccc23)n[nH]1 | 2 nM |  |  |  | 76 nM
2 | Cc1nnc(Nc2nc(N3CCN(C(=O)Cc4ccccc4)CC3)nn3cccc23)s1 | 14000 nM | 18 µM | 1.3 |  | 690 nM
3 | O=C(Cc1ccccc1)N1CCN(c2nc(Nc3nccs3)c3cccn3n2)CC1 | 59 nM |  | 37 | 2.6 | 1200 nM
4 | Cc1cc(Nc2nc(N3CCN(C(=O)Cc4c(F)cc(Cl)cc4F)CC3)nn3cccc23)n[nH]1 | 1 nM |  | 67 | 3.8 | 80 nM
5 | Cc1ccc(CC(=O)N2CCN(c3nc(Nc4cc(C)[nH]n4)c4cccn4n3)CC2)cc1 | 1.1 nM |  |  |  | 310 nM
6 | CCC(=O)N1CCN(c2nc(Nc3cc(C)[nH]n3)c3cccn3n2)CC1 | 22 nM |  | 5 |  | 
7 | COc1ccc(CC(=O)N2CCN(c3nc(Nc4cc(C)[nH]n4)c4cccn4n3)CC2)cc1 | 1.2 nM |  |  |  | 630 nM
8 | Cc1cc(Nc2nc(N3CCN(C(=O)c4ccccc4S(C)(=O)=O)CC3)nn3cccc23)n[nH]1 | 1.1 nM |  |  |  | 190 nM
9 | Cc1cc(Nc2nc(N3CCN(C(=O)Cc4ccc(F)cc4)CC3)nn3cccc23)n[nH]1 | 0.9 nM |  | 25 | 6.5 | 54 nM
10 | Cc1cc(Nc2nc(N3CCN(C(=O)Cc4ccc(F)cc4F)CC3)nn3cccc23)n[nH]1 | 2.4 nM |  |  |  | 54 nM
11 | Cc1ccc(C(=O)N2CCN(c3nc(Nc4cc(C)[nH]n4)c4cccn4n3)CC2)cc1 | 4.5 nM |  |  |  | 59 nM
12 | O=C(Cc1ccccc1)N1CCN(c2nc(Nc3ccccn3)c3cccn3n2)CC1 | 190 nM |  | 41 | 11 | 
13 | Cc1cc(Nc2nc(N3CCN(C(=O)Cc4ccccc4C)CC3)nn3cccc23)n[nH]1 | 5.3 nM |  |  |  | 120 nM
14 | Cc1cc(Nc2nc(N3CCNCC3)nn3cccc23)n[nH]1 |  |  | 15 | 16 | 
15 | COc1cc(F)c(CC(=O)N2CCN(c3nc(Nc4cc(C)n[nH]4)c4cccn4n3)CC2)c(F)c1 |  |  |  |  | 110 nM
16 | Cc1cc(Nc2nc(N3CCN(C(=O)c4ccccc4)CC3)nn3cccc23)n[nH]1 | 2.2 nM |  |  |  | 62 nM
17 | Cc1cc(Nc2nc(N3CCN(C(=O)c4ccc(C#N)cc4)CC3)nn3cccc23)n[nH]1 | 4.8 nM |  |  |  | 6.2 nM
18 | Cc1cc(Nc2nc(N3CCN(C(=O)N(C)C)CC3)nn3cccc23)n[nH]1 |  |  | 11 | 5 | 
19 | Cc1cc(Nc2nc(N3CCN(C(=O)c4ccccc4Cl)CC3)nn3cccc23)n[nH]1 | 7.3 nM |  |  |  | 71 nM

Further lines, with some results ahead:

Row | IC50 [1] | IC50 [3] | Ratio IC50 [4] | Ratio IC50 [5] | Structure (SMILES) | IC50 [2]
20 | 3 nM |  |  |  | Cc1cc(Nc2nc(N3CCN(C(=O)c4ccccc4C)CC3)nn3cccc23)n[nH]1 | 160 nM
21 | 110 nM |  |  |  | CC(C)n1cnc(Nc2nc(N3CCN(C(=O)Cc4ccccc4)CC3)nn3cccc23)c1 | 670 nM
22 | 4.6 nM |  |  |  | Cc1cc(Nc2nc(N3CCN(C(=O)Cc4ccccc4F)CC3)nn3cccc23)n[nH]1 | 170 nM
23 | 6 nM |  |  |  | Cc1cc(Nc2nc(N3CCN(C(=O)c4ccccc4C#N)CC3)nn3cccc23)n[nH]1 | 140 nM
24 | 9.3 nM |  |  |  | Cc1cc(Nc2nc(N3CCN(C(=O)N(C)C)CC3)nn3cccc23)[nH]n1 | 
25 | 2700 nM |  |  |  | O=C(NC1CC1)c1cc(Nc2nc(N3CCN(C(=O)Cc4ccccc4)CC3)nn3cccc23)n[nH]1 | 1400 nM
26 | 22 nM |  |  |  | CC1(c2cc(Nc3nc(N4CCN(C(=O)Cc5ccccc5)CC4)nn4cccc34)n[nH]2)CC1 | 980 nM
27 | 2.8 nM |  |  |  | Cc1cc(Nc2nc(N3CCN(C(=O)Cc4ccccc4)CC3)nn3cccc23)n[nH]1 | 370 nM
28 | 0.6 nM |  |  |  | Cc1cc(Nc2nc(N3CCN(C(=O)Cc4ccc(Cl)cc4)CC3)nn3cccc23)n[nH]1 | 590 nM
29 | 2.1 nM |  |  |  | Cc1cc(Nc2nc(N3CCN(C(=O)c4ccccc4Br)CC3)nn3cccc23)n[nH]1 | 180 nM
30 | 3.5 nM |  |  |  | COc1ccccc1C(=O)N1CCN(c2nc(Nc3cc(C)[nH]n3)c3cccn3n2)CC1 | 90 nM
